The results in this text go back to patent publication US4510307A, “6-Quinazolinesulfonyl derivatives and process for preparation thereof” (Asahi Kasei Kogyo Kabushiki Kaisha, priority 1980, dated 1985).

Data set [1] deals with hog cerebral cortex calmodulin or calcium-dependent cyclic nucleotide PDE. In words: PDE inhibition, calmodulin or calcium-dependent cyclic nucleotide PDE of hog cerebral cortex. In kind it is biochemical. The source says:
(§1) More specifically, from the results of the experiment using an enzyme specimen in accordance with the reports [Mol. Pharmacol., 15, 49 (1979) and Biochem. Biophys. […] The 6-quinazolinesulfonyl derivatives and the pharmaceutically acceptable acid addition salts have inhibited the decomposition due to the enzyme specimens of substrate c-AMP and guanosine-3',5'-monophosphate (abbreviated "c-GMP"). This means that the compounds of this invention can inhibit the decomposition of the c-AMP and maintain the c-AMP in tissue at a high concentration. In other words, the compounds of this invention are effective for the improvement and medical treatment of a disease accompanied by reduction in the c-AMP and a disease accompanied by infiltration of calcium into tissue, for example, the contraction and convulsion of vascular smooth muscle.
(§2) As the enzyme specimens, human blood platelet and hog cerebral cortex were partially purified in accordance with reports [Mol. Pharmacol., 15, 49 (1979) and Biochem. Biophys. Res. Comun., 84, 277 (1978)]. The effect of the 6-quinazolinesulfonyl derivatives and their pharmaceutically acceptable acid addition salts of this invention on the c-AMP-decomposing PDE and the calmodulin or calcium-dependent cyclic nucleotide PDE was examined under the conditions in accordance with the above described reports. […] The activity of the compounds of this invention is expressed by the concentration which is required to inhibit 50% of the decomposition of the c-AMP-decomposing PDE, i.e., I50 by μM.
*^2 The enzyme activity was measured by using calmodulin and Ca^+
dependent specimens. The nonactivation was measured in the presence of
0.2 mM of EGTA, while the activation was measured in the presence of 0.2
mM of CaCl2 and 8 units of calmodulin.

In data set [2] the test system is mesenteric artery. Nature of the data set: Relaxation of Mesenteric Artery (isolated rabbit mesenteric artery contracted with KCl). The settings on record: Oryctolagus cuniculus, concentration for 50% relaxation, KCl 15~20 mM contraction, read-out: Relaxation of Mesenteric Artery ED50. Here is the method:
When, for example, 1-[4-(N-methyl-N-cyclohexylamino)-6-quinazolinesulfonyl]-4-(2-ethoxy-2-phenylethyl)piperazine was added and a complete relaxation was designated 100%, the concentration which could bring about a relaxation of 50%, i.e., ED50 was 0.8 μM.
After a home bred rabbit of a Japanese species weighing about 3 Kg was subjected to bloodletting, resulting in death and then to abdominal incision, the mesenteric artery was taken out, cut into helicoids of 2 mm×25 mm and suspended in a 20 ml organ bath filled with a Krebs-Henseleit solution into which a mixed gas of 95% by volume of O2 and 5% by volume of CO2 was introduced and one end of the artery was connected with an isometric transducer. When a load of 1.5 g was applied to the artery, the contraction and the relaxation of the artery was recorded as a weight on the transducer (a product of Nippon Koden K.K., Japan, "FD Pickup TB-912T"). The relaxation of the mesenteric artery was observed by adding the 6-quinazolinesulfonyl derivatives and their pharmaceutically acceptable acid addition salts to the mesenteric artery at the condition of about one half of the maxinum contraction with KCl at a KCl concentrantion of 15~20 mM. When the complete relaxation of the mesenteric artery was designated 100%, the concentration of the 6-quinazolinesulfonyl derivatives and their pharmaceutically acceptable acid addition salts which brought about a relaxation of 50% is shown in Table 6.

Data set [3] is described as follows: Acute toxicity, intravenous administration in mice. The conditions noted are these: mouse, in vivo, male ddY-strain mice. Here is the method:
Furthermore, when the 6-quinazolinesulfonyl derivatives and the pharmaceutically acceptable acid addition salts of this invention are intravenously and arterially administered for the above described purposes, any remarkable toxicity cannot be observed.
The acute toxicity of the 6-quinazolinesulfonyl derivatives and their pharmaceutically acceptable acid addition salts was measured by giving male ddY-strain mice an intravenous administration.

The test system of data set [4] is vertebral artery. In words: Effect on blood flow volume of vertebral artery of dog. It counts as in vivo, dog of mixed breed. The settings on record: Canis lupus familiaris; 1 mg/Kg intravenous; anesthetized dog; read-out: Increased Blood Flow Volume in Vertebral Artery. How it is done: (§3) The effect of the 6-quinazolinesulfonyl derivatives and the pharmaceutically acceptable acid addition salts of this invention on the vasodilation of the femoral and vertebral arteries can be measured by anesthetizing a dog of mixed breed weighing 8 to 15 Kg by an intravenous administration of 35 mg/Kg of pentbarbital, providing an acute type probe (a product of Nippon Koden K.K., Japan) with the femoral and vertebral arteries, administering the 6-quinazolinesulfonyl derivatives and the pharmaceutically acceptable acid addition salts to the femoral vein through a polyethylene tube inserted into the femoral vein side chain and measuring the blood flow volume with an electromagnetic flowmeter (a product of Nippon Koden K.K., Japan, "MF-27"). For example, when 1 mg/Kg of 1-[4-(N-methyl-N-cyclohexylamino)-6-quinazolinesulfonyl]-4-(2-ethoxy-2- phenylethyl)piperazine was intravenously administered, the increased blood flow volume in the femoral artery was 33% and the increased blood flow volume in the vertebral artery was 59%.
(§4) The effect on the vasodilatation of the femoral and vertebral arteries was measured by anesthetizing a dog of mixed breed weighing 8 to 15 Kg by an intravenous administration of 35 mg/Kg of pentbarbital, providing an acute type probe (a product of Nippon Koden K.K., Japan) with the femoral and vertebral arteries, administering the 6-quinazolinesulfonyl derivatives and their pharmaceutically acceptable acid addition salts to the femoral vein through a polyethylene tube inserted into the femoral vein side chain and measuring the blood flow volume with an electromagnetic blood flowmeter (a product of Nippon Koden K.K., Japan, "MF-27").

Data set [5] relates to human blood platelet cAMP PDE. In words: PDE inhibition, c-AMP-decomposing PDE of human blood platelet. It counts as biochemical. The settings on record: human blood platelet cAMP PDE specimen; read-out: PDE Inhibition I50, Human Blood Platelet (PII).
Source text: as §1, §2
*^1 The human blood platelet cAMP PDE specimen was employed.

Data set [6] deals with femoral artery. Nature of the data set: Effect on blood flow volume of femoral artery of dog. The settings on record: Canis lupus familiaris; 1 mg/Kg intravenous; anesthetized dog; read-out: Increased Blood Flow Volume in Femoral Artery. In kind it is in vivo, dog of mixed breed. How it is done:
as §3, §4

Setting [7] is: activated: 0.2 mM CaCl2 and 8 units of calmodulin, read-out: PDE Inhibition I50, Hog Cerebral Cortex (PII), Activated.
Setting [8] is: non-activated: presence of 0.2 mM EGTA, read-out: PDE Inhibition I50, Hog Cerebral Cortex (PII), Non-activated.
The mark [9] stands for this setting: non-activated: presence of 0.2 mM EGTA.

As usually defined, the LD50 is the dose expected to kill half of the subjects tested. Read a high LD50 as lower toxicity.

Read-outs that look alike come from different tables or passages of the source.

With `NCCCCCCNS(=O)(=O)c1ccc2ncnc(N3CCCCC3)c2c1` [Compound (32), N-(6-aminohexyl)-4-piperidino-6-quinazolinesulfonamide], the IC50 in data set [1] (setting [7]) came out at 111 µM; in data set [1] (setting [8]), 94 µM; in data set [5], 520 µM. For the same compound, in data set [2], the EC50 was 24 µM. For the same compound, the 50% lethal dose (LD50) in data set [3] worked out at 95 mg/kg. Also, the change in vivo at 1 mg/kg in data set [4] was 36%; in data set [6], 21%.

With `CCOC(CN1CCN(S(=O)(=O)c2ccc3ncnc(N(C)C4CCCCC4)c3c2)CC1)c1ccccc1` (stereo not drawn) [Compound (19), 1-[4-(N-methyl-N-cyclohexylamino)-6-quinazolinesulfonyl]-4-(2-ethoxy-2-phenylethyl)piperazine], the IC50 in data set [1] (setting [7]) is 4 µM; in data set [1] (setting [8]), 4 µM; in data set [5], 750 µM. The EC50 in data set [2] is 0.8 µM. The compound further yielded an LD50 in data set [3] of 63 mg/kg. Besides, the change in vivo at 1 mg/kg was found to be 59% in data set [4] and 33% in data set [6].

As for `CCOC(CN1CCN(S(=O)(=O)c2ccc3ncnc(N4CCCCC4)c3c2)CC1)c1ccccc1` (stereo not drawn) [Compound (6), 1-(4-piperidino-6-quinazolinesulfonyl)-4-(2-ethoxy-2-phenylethyl)-piperazine], the results for the IC50 in data set [1] (setting [7]), in data set [1] (setting [8]) and in data set [5] were 31 µM, 15 µM and 850 µM, respectively. In data set [2], the EC50 is 1.7 µM. The compound further had a 50% lethal dose (LD50) in data set [3] of 108 mg/kg. Moreover, the change in vivo at 1 mg/kg turned out to be 51% in data set [4] and 31% in data set [6].

Regarding `CCOC(CN1CCN(S(=O)(=O)c2ccc3ncnc(N(C)Cc4ccccc4)c3c2)CC1)c1ccccc1` (stereo not drawn) [Compound (25), 1-[4-(N-methyl-N-benzylamino)-6-quinazolinesulfonyl]-4-(2-ethoxy-2-phenylethyl)piperazine], the figures for the IC50 in data set [1] (setting [7]), in data set [1] (setting [8]) and in data set [5] were 7 µM, 7 µM and 850 µM, respectively. Also, in data set [2], the EC50 was 0.8 µM. The LD50 in data set [3] was 72 mg/kg. The change in vivo at 1 mg/kg in data set [4] was determined as 48%; in data set [6], 36%.

On to `CCCCN(CCCC)c1ncnc2ccc(S(=O)(=O)NCCCCN)cc12` [Compound (37), N-(4-aminobutyl)-4-dibutylamino-6-quinazolinesulfonamide], for which the IC50 in data set [1] (setting [7]) was 44 µM; in data set [1] (setting [8]) it was 109 µM; in data set [5], 250 µM. In data set [2], the EC50 amounted to 8 µM. The compound further returned an LD50 in data set [3] of 103 mg/kg. The change in vivo at 1 mg/kg was 41% in data set [4] and 24% in data set [6].

Consider `NCCCCNS(=O)(=O)c1ccc2ncnc(N3CCCCC3)c2c1` [Compound (31), N-(4-aminobutyl)-4-piperidino-6-quinazolinesulfonamide], for which the IC50 was determined as 75 µM in data set [1] (setting [7]), 88 µM in data set [1] (setting [8]) and 300 µM in data set [5]. Also, the EC50 in data set [2] came out at 21 µM. In addition, in data set [3], the median lethal dose (LD50) worked out at 45 mg/kg. Besides, the change in vivo at 1 mg/kg in data set [4] was 48%; in data set [6] it was 28%.

In the case of `CCOC(CN1CCN(S(=O)(=O)c2ccc3ncnc(N(C)c4ccccc4)c3c2)CC1)c1ccccc1` (stereo not drawn) [Compound (23), 1-[4-(N-methylanilino)-6-quinazolinesulfonyl]-4-(2-ethoxy-2-phenylethyl)-piperazine], the IC50 in data set [1] (setting [7]) was determined as 11 µM; in data set [1] (setting [8]), 24 µM; in data set [5], 900 µM. In data set [2], the EC50 stood at 2.2 µM. Moreover, the LD50 in data set [3] was 98 mg/kg. Besides, the change in vivo at 1 mg/kg in data set [4] turned out to be 38%; in data set [6] it was 25%.

For the compound `O=S(=O)(c1ccc2ncnc(N3CCCCC3)c2c1)N1CCN(CC=Cc2ccccc2)CC1` [Compound (9), 1-(4-piperidino-6-quinazolinesulfonyl)-4-cinnamylpiperazine], the IC50 in data set [1] (setting [7]) amounted to 20 µM; in data set [5] it was 700 µM. Also, the “PDE Inhibition I50, Hog Cerebral Cortex (PII), Non-activated” value in data set [1] (setting [9]) was “not inhibited”. The EC50 in data set [2] was determined as 3 µM. The compound further yielded a 50% lethal dose (LD50) in data set [3] of 133 mg/kg. Besides, the change in vivo at 1 mg/kg in data set [4] was determined as 42%; in data set [6], 24%.

Take `CCCCN(CCCC)c1ncnc2ccc(S(=O)(=O)N3CCN(CC(OCC)c4ccccc4)CC3)cc12` (stereo not drawn) [Compound (4), 1-(4-dibutylamino-6-quinazolinesulfonyl)-4-(2-ethoxy-2-phenylethyl)-piperazine]: the IC50 turned out to be 370 µM in data set [1] (setting [7]) and 950 µM in data set [5]. Also, in data set [1] (setting [9]), the “PDE Inhibition I50, Hog Cerebral Cortex (PII), Non-activated” value is listed as “not inhibited”. Also, the EC50 in data set [2] was determined as 1.3 µM. Further, in data set [3], the 50% lethal dose (LD50) came out at 135 mg/kg. Moreover, the results for the change in vivo at 1 mg/kg in data set [4] and in data set [6] were 50% and 33%, respectively.
